Paper PMC12045974, “T cell toxicity induced by tigecycline binding to the mitochondrial ribosome” (Nature Communications, 2025)
“And” between values parts separate entries of the source, which are not always exact repeats. Equal values may be shown once.

Assays:
OXPHOS complexes = experiment: Western blotting for OXPHOS complexes in Jurkat T cells and PBMCs; assay type: cell-based; settings: Jurkat T cells and human PBMCs, 5 μM, 6 days
Procedure: Human PBMCs and Jurkat T cells were seeded in 6-well plates at a density of 1 million cells/ml and incubated with or without antibiotics in RPMI-1640 medium (with 10% FBS, 2.05 mM L-glutamine (Sigma), and 55 μM 2-ME (Gibco)) for 6 days. After centrifugation, cells were lysed in RIPA buffer containing protease and phosphatase inhibitors (cOmplete and PhosSTOP, respectively, Roche). Protein concentrations were determined by BCA (Pierce, Thermo Fisher). Protein samples were resuspended with 1× NuPAGE LDS sample buffer (Thermo Fisher) supplemented with 100 mM dithiothreitol, heated for 10 min at 75 °C, and separated on NuPAGE 4–12% Bis-Tris mini gels (Thermo Fisher) using NuPAGE 1× MES (Thermo Fisher) running buffer, and transferred to PVDF membranes (0.45 μm, Immobilon-P, Sigma) using the iBlot2 system (Invitrogen). Non-specific binding was blocked with TBST containing 5% non-fat milk, followed by overnight incubation at 4 °C with antibodies against Total OXPHOS Human WB Antibody Cocktail (Abcam, Cambridge, UK), followed by HRP-conjugated secondary antibodies for 1 h at room temperature. β-actin, HSP60, and GAPDH (Cell Signaling Technology) were used as loading control. Proteins were detected using Clarity Western ECL Substrate (Bio-Rad, 170-5061). For an example of presentation of full scan blots, see the Source Data file.

[1] = tested on: mitochondrial translation in CD4+ and CD8+ T cells; experiment: Mito-FUNCAT-FACS assay of mitochondrial translation on activated T cells; assay type: cell-based, human; settings: for mitochondrial translation (fold change relative to negative control): per PBMC donor
Procedure: Thawed PBMCs were washed with RPMI ( + 10% FBS, 2.05 mM L-glutamine (Sigma), and 55 μM 2-ME (Gibco)) before resting at 37 °C (5% CO2) for 30 min. After counting, cells were resuspended in FACS buffer at a density of 5 × 10^7 cells/ml. T cells were isolated using EasySep™ Human T Cell Isolation Kit (Stemcell Technologies). Purified T cells were counted and 85,000 cells per well seeded onto 96-well U-bottom plates with/without Human T-Activator CD3/CD28 beads (Invitrogen) at a 1:2.8 cell:bead ratio and 10 ng/ml IL-2 (Proteintech) in RPMI-1640 ( + 10% FBS, 2.05 mM L-glutamine (Sigma), and 55 μM 2-ME (Gibco)) for 48 h. To assess mitochondrial translation, activated T cells were washed twice with methionine/cysteine/pyruvate-free DMEM and incubated in methionine-depletion medium (DMEM supplemented with 10% dialyzed FBS, 1× GlutaMAX, 1× sodium pyruvate, and 0.2 mM L-cystine) for 30 min at 37 °C. To inhibit cytosolic translation, anisomycin (100 μg/mL) was added to the medium. For mitochondrial translation inhibition, 100 µg/mL chloramphenicol (309 μM, positive control) or tigecycline (2.5−10 μM) were added to the medium. Cells were then labeled with 50 μM L-homopropargylglycine (HPG) for 3 h at 37 °C, during which time the medium still contained antibiotics.
Following HPG labeling, cells were collected and stained with surface markers (CD4, CD8). Cells were pre-permeabilized with 0.005% digitonin in mitochondria-protective buffer (10 mM HEPES/KOH, 10 mM NaCl, 5 mM MgCl2, 300 mM sucrose, pH 7.5) for 3 min, fixed with 4% paraformaldehyde for 10 min, and fully permeabilized with 0.25% Triton X-100 for 5 min. After blocking with 5% BSA for 10 min, incorporated HPG was detected via copper-catalyzed cycloaddition using 0.05 μM Alexa Fluor 488 picolyl azide (Click-iT™ Plus Alexa Fluor™ 488 Picolyl Azide Toolkit, Gibco) for 30 min at room temperature. Subsequently, the reaction cocktail was removed and cells resuspended in FACS buffer. Flow cytometry was carried out on a BD Celesta (BD Biosciences) and analyzed in FlowJo (TreeStar). Data are presented as fold change relative to negative controls.

PBMCs = experiment: Extracellular metabolic flux assay (Seahorse Mito Stress Test, OCR and ECAR); assay type: cell-based, human; settings: for glycolysis rates: vs untreated stimulated controls; for ATP coupled OCR / Basal OCR / Maximal OCR / Spare capacity OCR: PBMC, per donor
Procedure: The Seahorse XFe96 Analyzer (Seahorse Bioscience) was used to measure oxygen consumption rate (OCR) and extracellular acidification rate (ECAR) in human PBMCs. 1.5 × 10^6 cells/well were seeded in 24-well plates and stimulated using plate-bound anti-CD3 antibody (2 μg/ml, clone OKT3, BD Biosciences), soluble anti-CD28 antibody (0.5 μg/ml, clone CD28.2, Biolegend) and IL-2 (10 ng/ml, Proteintech) in RPMI-1640 (with 10% FBS, 2.05 mM L-glutamine (Sigma), and 55 μM 2-ME (Gibco)). Cells were treated with or without 5 and 10 µM Tigecycline for 6 days with a half medium change after 3 days. After treatment, cells were washed with Seahorse XF RPMI assay medium, and then 200,000 cells per well were seeded (in triplicate) in 40 μl assay medium in XF 96-well cell culture microplate coated with poly-D-lysine (Sigma). The plate was centrifuged at 300 g for 5 s with no brake, rotated 180 °, and centrifuged again for 5 s at 300 x g. After centrifugation, 140 μl of assay medium was added per well and the plate was left to stabilize in a 37 °C, non-CO2 incubator for 40 min. During seahorse, wells were sequentially injected with compounds to achieve final concentrations of […] oligomycin (Sigma); 2 μM FCCP (Sigma); 0.5 μM rotenone (Sigma) together with 0.5 μM antimycin A (Sigma). OCR was measured for each well three times, every three min, before and after each injection. OCR was normalized to protein concentration using a BCA Protein Assay kit (ThermoFisher Scientific) conducted according to the manufacturer’s instructions.

**Q.** What does the source list for `CN(C)c1cc(NC(=O)CNC(C)(C)C)c(O)c2c1C[C@H]1C[C@H]3[C@H](N(C)C)C(O)=C(C(N)=O)C(=O)[C@@]3(O)C(O)=C1C2=O` [Tigecycline, tigecycline]?
**A.** levels of subunits of complex I (NDUFB8), complex III (UQCRCII) and complex IV (COX2) (OXPHOS complexes): drop; levels of subunits of complex II (SDHB) and complex V (ATP5A) (OXPHOS complexes): less affected; mitochondrial translation (fold change relative to negative control) ([1]; CD4, 2.5µM): 0.947 and 0.7157 and 0.7389; mitochondrial translation (fold change relative to negative control) ([1]; CD4, 5µM): 0.8077 and 0.645 and 0.697; mitochondrial translation (fold change relative to negative control) ([1]; CD4, 10µM): 0.7443 and 0.3992 and 0.6483 and 0.5621; mitochondrial translation (fold change relative to negative control) ([1]; CD8, 2.5µM): 0.9388 and 0.7432 and 0.8324; mitochondrial translation (fold change relative to negative control) ([1]; CD8, 5µM): 0.8134 and 0.656 and 0.7756; mitochondrial translation (fold change relative to negative control) ([1]; CD8, 10µM): 0.7567 and 0.4193 and 0.7571 and 0.5029; inhibition of mitochondrial translation ([1]; TCR-stimulated CD4+ and CD8+ T cells, 2.5-10 μM): dose-dependent inhibition of mitochondrial translation; glycolysis rates (PBMCs; 5 uM treatment): trended towards an increase; glycolysis rates (PBMCs; 10 uM treatment): trended towards being decreased; ATP coupled OCR (PBMCs; 5um): 0.02281 pmol/min/Norm. ug protein and -0.09216 pmol/min/Norm. ug protein and -0.102 pmol/min/Norm. ug protein and -0.498 pmol/min/Norm. ug protein; Basal OCR (PBMCs; 5um): -0.181 pmol/min/Norm. ug protein and -0.2066 pmol/min/Norm. ug protein and 0.2924 pmol/min/Norm. ug protein and 0.06036 pmol/min/Norm. ug protein; Maximal OCR (PBMCs; 5um): 0.6209 pmol/min/Norm. ug protein and 0.08625 pmol/min/Norm. ug protein and 0.8496 pmol/min/Norm. ug protein and -0.7482 pmol/min/Norm. ug protein; Spare capacity OCR (PBMCs; 5um): 0.2929 pmol/min/Norm. ug protein and 0.5571 pmol/min/Norm. ug protein and -0.8086 pmol/min/Norm. ug protein; ATP coupled OCR (PBMCs; 10um): -0.2018 pmol/min/Norm. ug protein and -0.1474 pmol/min/Norm. ug protein and -0.3438 pmol/min/Norm. ug protein and 0.00593 pmol/min/Norm. ug protein; Basal OCR (PBMCs; 10um): -0.1538 pmol/min/Norm. ug protein and -0.01961 pmol/min/Norm. ug protein and -0.5181 pmol/min/Norm. ug protein and 0.03583 pmol/min/Norm. ug protein; Maximal OCR (PBMCs; 10um): 0.1774 pmol/min/Norm. ug protein and 0.3784 pmol/min/Norm. ug protein and -0.2836 pmol/min/Norm. ug protein and 0.05421 pmol/min/Norm. ug protein; Spare capacity OCR (PBMCs; 10um): 0.398 pmol/min/Norm. ug protein and 0.2345 pmol/min/Norm. ug protein and 0.01838 pmol/min/Norm. ug protein; glycolysis (ECAR) (PBMCs; stimulated PBMCs, 5 and 10 μM, 6 days): did not observe a major compensatory increase in glycolysis; basal, ATP-coupled, maximal and spare oxygen consumption rates (PBMCs; stimulated PBMCs, 5 and 10 μM, 6 days after stimulation): reduced
